# Legend:
# Format in all cases: cell-based, human
# MJ cells = test: Caspase-3 induction in MJ cells; settings: 10.0 uM, 24 hours
# Protocol: (§1) HH, HuT78 and MJ cells were treated with vehicle alone or WP1220 for 24 hours. Total caspase-3 and cleaved caspase-3 levels were measured in 15 ug lysates by a meso-Scale 2400 imager. Results represent means fold stimulations compared to the controls based on duplicate samples (+++++=15-25 fold; ++++=10-15 fold; +++=5-10 fold; =/−=less than 2 fold.
# [1] = tested on: STAT3 in HH, HuT78 and MJ CTCL lines; test: STAT3 tyrosine 705 phosphorylation in CTCL lines
# Protocol: To determine whether IFN alpha and beta were able to selectively phosphorylate STAT3 in other cell types. Studies were conducted in a range of other biologically relevant cell types. In these experiments, cells were grown in media supplemented with 10% FBS, and then serum starved for 18 hours and exposed to various stimuli for 30 minutes.
# HH cells = test: Caspase-3 and PARP cleavage in HH cells
# Protocol: (§2) To determine whether IFN alpha and beta were able to selectively phosphorylate STAT3 in other cell types. Studies were conducted in a range of other biologically relevant cell types. In these experiments, cells were grown in media supplemented with 10% FBS, and then serum starved for 18 hours and exposed to various stimuli for 30 minutes. […] (FIG. 10), and induced caspase-3 and PARP cleavage in these cells (Table E5)
# as §1
# [2] = tested on: HuT78 and HH CTCL cell lines; test: In vitro growth of CTCL cell lines
# [3] = tested on: STAT3 in HaCaT keratinocytes; test: pSTAT3 level in HaCaT keratinocytes (MSD chemiluminescent detection); settings: pre-incubated
# Protocol: Prior to experiments, the DMEM medium was changed to KGM-SFM containing rEGF and bovine pituitary extract for 12 hours, and the cells then exposed to various stimuli for 30 minutes. Cell lysates were extracted in IP lysis buffer were diluted in MSD extraction buffer and 25 uL of the cell lysate containing 10 ug protein was used in the analysis via chemiluminescent detection (MSD Technology). To test for inhibition by WP1220 (WP), cells were pre-incubated with WP1220 prior to the addition of IFN α.
# HuT78 Cells = test: Caspase-3 and PARP cleavage in HuT78 cells
# Protocol: as §2, §1
smiles,measurement,setting,value
"C[C@H](NC(=O)/C(C#N)=C/C=C/c1cccc(Br)n1)c1ccccc1 [WP1220, (2E,4E)-5-(6-bromopyridin-2-yl)-2-cyano-N—((S)-1-phenylethyl)penta-2,4-dienamide]",induction of caspase-3 activity (fold stimulation compared to controls),MJ cells,+++ (+++=5-10 fold)
same,relative level of activated pSTAT3,[1]; HH cells,time dependent decrease
same,constitutive and interferon stimulated phosphorylation of STAT3,"[1]; HH, HuT78, MJ cells (FIG. 8A, B)",specifically blocked
same,Cleaved Caspase,HH cells; 5.0 uM,"++++ (++++=60,000-40,000)"
same,Cleaved PARP,HH cells; 5.0 uM,"+++++ (+++++=10,000-7,000)"
same,Cleaved Caspase,HH cells; 10.0 uM,"++++ (++++=60,000-40,000)"
same,Cleaved PARP,HH cells; 10.0 uM,"+++ (+++=5,000-2000)"
same,induction of caspase-3 activity (fold stimulation compared to controls),"HH cells; 10.0 uM, 24 hours",+++++ (+++++=15-25 fold)
same,in vitro growth,[2],potently inhibiting the in vitro growth
same,pSTAT3 signal remaining after WP1220 pre-incubation,[3]; IFN α + WP 5 uM,"+++ (+++=2,000-4,000)"
same,pSTAT3 signal remaining after WP1220 pre-incubation,[3]; IFN α + WP 10 uM,"++ (++=2,000-1,500)"
same,pSTAT3 signal remaining after WP1220 pre-incubation,[3]; IFN α + WP 20 uM,"+ (+=less than 1,500)"
same,Cleaved Caspase,HuT78 Cells; 5.0 uM,"++++ (++++=60,000-40,000)"
same,Cleaved PARP,HuT78 Cells; 5.0 uM,"++++ (++++=7,000-5,000)"
same,Cleaved PARP,HuT78 Cells; 10.0 uM,"+++ (+++=5,000-2000)"
same,induction of caspase-3 activity (fold stimulation compared to controls),"HuT78 Cells; 10.0 uM, 24 hours",++++ (++++=10-15 fold)

# Source: US20130129675A1, “INTERFERON THERAPIES IN COMBINATION WITH BLOCKADE OF STAT3 ACTIVATION” (BOARD OF REGENTS, THE UNIVERSITY OF TEXAS SYSTEM, priority 2009, published 2013)
